Results reported in patent US12012412B2, “Solid forms of pyrazolo[3,4-d]pyrimidine compounds” (Pfizer Inc., priority 2021, dated 2024).
Values after ≈ are worked out from the molar mass of the structure shown. Read-outs that look alike come from different tables or passages of the source. Values belong to the compound of their own block, whether it stands above or below them.

What was measured:
Format in all cases: physicochemical
[1] = VH-XRPD analysis of Solid Form B
Experimental: VH-XRPD analysis was carried out on a Philips X'Pert Pro Multipurpose diffractometer equipped with a humidity chamber. The samples were scanned between 4 and 35.99°2θ using Cu K radiation (α1λ=1.54060 Å; α2=1.54443 Å; β=1.39225 Å; α1:α2 ratio=0.5) running in Bragg-Brentano geometry (step size 0.008°2θ) using 40 kV/40 mA generator settings. Variable humidity XRPD was carried out using the following method: A diffractogram was collected once each targeted % RH was reached and after the reported time had elapsed (Table 14 below). After 20 hours at 2% RH, some P2O5 was introduced within the stage chamber with the aim of further dry the environment. The sample was kept at these conditions for further 16 hours, during which a diffractogram was collected ever hour.

[2] = 7-day stability assessment of Solid Form B; settings: 7 days; for HPLC purity (% rel. Area): input purity 100%
Experimental: 15 mg of Solid Form B was weighed into 3×1.5 mL vials. • One vial was left uncapped, placed inside a scintillation vial and stored at ambient conditions (ca. 20° C.). • One vial was left uncapped and placed inside a scintillation vial. This was placed in a stability oven at 40° C./75% RH. • One vial was capped and placed inside a scintillation vial. This was placed inside an oven at 80° C. After 7 days the samples were removed from their respective conditions, analyzed by XRPD and submitted for HPLC analysis.

[3] = Dynamic vapour sorption (DVS) assessment of Solid Form B
[4] = VT-XRPD analysis of Solid Form B
Experimental: VT-XRPD analysis was carried out on a Philips X'Pert Pro Multipurpose diffractometer equipped with a temperature chamber. The samples were scanned between 4 and 35.99°2θ using Cu K radiation (α1λ=1.54060 Å; α2=1.54443 Å; β=1.39225 Å; α1:α2 ratio=0.5) running in Bragg-Brentano geometry (step size 0.008°2θ) using 40 kV/40 mA generator settings. Solid Form B was analyzed by VT-XRPD to assess changes in form upon heating. The sample was heated at 10° C./min and diffraction pattern collected at various temperatures (based on TG/DSC data).

[5] = Thermodynamic solubility assessment of Solid Form B; settings: for solubility thermodynamic at 24 h: thermodynamic from solid; for solubility thermodynamic at 24 h / XRPD Pattern of residual solid: 24 hours
[6] = Mechanical properties of batches of Solid Form A; settings: lots of Solid Form A; A2 and A9 unmilled, A3 and A6/A7 milled
[7] = Particle size of batches of Solid Form A; settings: batches of Solid Form A, milled or unmilled per batch
Text: Primary particles from below 100 μm to around 500 μm in size, with soft agglomerates up to several millimeters, were observed. The D[4,3] of this material was 195 μm. This material was subsequently milled, to give far fewer large particles and an overall much smaller average primary particle size, giving a D[4,3] of 49.5 μm. See Table 8 for a comparison of particle size properties of various batches.

[8] = True density of Solid Form A; settings: lots of Solid Form A; A2 and A9 unmilled, A3 and A6/A7 milled

XRPD (form at variable humidity) ([1]; 2% RH, 0.5 hours): Solid Form B | XRPD (form at variable humidity) ([1]; 2% RH, 20 hours): Solid Form B | XRPD (form at variable humidity) ([1]; 10% RH, 1 hour): Solid Form B | XRPD (form at variable humidity) ([1]; 40% RH, 0 hours (start)): Solid Form B | XRPD (form at variable humidity) ([1]; 40% RH, 0.5 hours): Solid Form B | XRPD (form at variable humidity) ([1]; 90% RH, 0.5 hours): Solid Form B | Change in form under variable humidity (VH-XRPD) ([1]; variable % RH, down to 2% RH and with P2O5): no change in form | Solid form after storage (XRPD) ([2]; 40° C./75% RH): retained | XRPD (form after storage) ([2]; 40° C./75% RH): Solid Form B | HPLC purity (% rel. Area) ([2]; 40° C./75% RH): 100 % rel. Area | HPLC purity (% rel. Area) ([2]; 80° C.): 100 % rel. Area | XRPD (form after storage) ([2]; Ambient Light): Solid Form B | HPLC purity (% rel. Area) ([2]; Ambient Light): 100 % rel. Area | Solid form after storage (XRPD) ([2]; ambient temperature (ca. 20° C.)): retained | Purity change (HPLC) ([2]; ambient, 40° C./75% RH and 80° C.): no drop in purity | Uptake (DVS) ([3]; at 80% RH): 4.3 wt. % | Mass loss on de-sorption/uptake on sorption (DVS) ([3]; between 0 and 10% RH): ca. 2.6 wt. % | Mass loss on de-sorption/uptake on sorption (DVS), water equivalents ([3]; between 0 and 10% RH): 0.6 eq. water | Uptake (DVS) ([3]; between 40 and 80% RH, first sorption cycle): 0.2 wt. % | XRPD (form observed on heating) ([4]; 30 °C, hold 0 mins (last step, after 135 °C)): Solid Form A | XRPD (form observed on heating) ([4]; 30 °C, hold 0 mins (start), heated at 10 °C/min): Solid Form B | XRPD (form observed on heating) ([4]; 85 °C, hold 0 mins): Solid Form C | XRPD (form observed on heating) ([4]; 85 °C, hold 5 mins): Solid Form C | Solid form observed upon heating (VT-XRPD) ([4]; 130° C.): mixture of Solid Form A and C | XRPD (form observed on heating) ([4]; 130 °C, hold 0 mins): Solid Form A/C | Solid form observed upon heating (VT-XRPD) ([4]; 135° C.): consistent with Solid Form A | XRPD (form observed on heating) ([4]; 135 °C, hold 0 mins): Solid Form A | XRPD (form observed on heating) ([4]; 135 °C, hold 10 mins): Solid Form A | Solid form observed upon heating (VT-XRPD) ([4]; heated to 85° C., 10° C./min): Solid Form C | Solid form after solubility test (XRPD) ([5]; across the pH range, 25° C.): retained | solubility thermodynamic at 24 h ([5]; aqueous buffer, pH 4.5 buffer, 25° C., read-out: HPLC conc. (mg/mL), thermodynamic solubility): 162 mg/mL (≈ 411 mM) | solubility thermodynamic at 24 h ([5]; aqueous buffer, pH 6.8 buffer, 25° C., read-out: HPLC conc. (mg/mL), thermodynamic solubility): 21.8 mg/mL (≈ 55.1 mM) | solubility thermodynamic at 24 h ([5]; buffer, aqueous buffer, pH 4.5, 25° C., read-out: Thermodynamic solubility): > 150 mg/mL | XRPD Pattern of residual solid ([5]; pH 1.2 buffer, 25° C.): Solid Form B | XRPD Pattern of residual solid ([5]; pH 4.5 buffer, 25° C.): Solid Form B | XRPD Pattern of residual solid ([5]; pH 6.8 buffer, 25° C.): Solid Form B | solubility thermodynamic at 24 h ([5]; simulated gastric fluid, pH 1.2 buffer, 25° C., read-out: HPLC conc. (mg/mL), thermodynamic solubility): 46.7 mg/mL (≈ 118 mM)
Structure (SMILES): C[C@@H]1CN(Cc2ncccn2)C[C@H]1c1nc2c(cnn2C2CCOCC2)c(=O)[nH]1 [Solid Form B, 6-((3S,4S)-4-methyl-1-(pyrimidin-2-ylmethyl)pyrrolidin-3-yl)-1-(tetrahydro-2H-pyran-4-yl)-1,5-dihydro-4H-pyrazolo[3,4-d]pyrimidin-4-one]
Solid form after storage (XRPD) ([2]; 80° C.): converted to a mixture of Solid Form A and Solid Form C | XRPD form after DVS analysis ([3]; post DVS): consistent with Solid Form B with traces of Solid Form C

Brittle fracture index, Rating [6]: Very low | Brittle fracture index, Value [6]: −0.077 | Brittle/viscoelastic bonding index (x105), Value [6]: 1.95 | Brittle/viscoelastic bonding index, Rating [6]: Poor | Compression stress (MPa), Value [6]: 52.5 MPa | Compression stress, Rating [6]: Moderate | Compromised Tensile strength (MPa), Value [6]: 0.302 MPa | Dynamic indentation hardness (MPa), Value [6]: 63.6 MPa | Dynamic indentation hardness [ductility rating], Rating [6]: High | Solid fraction, Value [6]: 0.85 | Tensile strength (MPa), Value [6]: 0.255 MPa | Tensile strength, Rating [6]: Very low | Worst case bonding index (x102), Value [6]: 0.401 | Worst case bonding index, Rating [6]: Moderate | Particle size D[4, 3] [7]: 195 μm | Particle size D[v, 0.1] [7]: 20.6 µm | Particle size D[v, 0.9] [7]: 362 µm | True density (g/cm3), Value [8]: 1.29 g/cm3
Structure (SMILES): CC1CN(Cc2ncccn2)CC1c1nc2c(cnn2C2CCOCC2)c(=O)[nH]1 (stereo not shown) [A9]

Brittle fracture index, Rating [6]: Low | Brittle fracture index, Value [6]: 0.139 | Brittle/viscoelastic bonding index (x105), Value [6]: 8.44 | Brittle/viscoelastic bonding index, Rating [6]: Marginal | Compression stress (MPa), Value [6]: 67.9 MPa | Compression stress, Rating [6]: Moderate | Compromised Tensile strength (MPa), Value [6]: 0.488 MPa | Solid fraction, Value [6]: 0.857 | Tensile strength (MPa), Value [6]: 0.624 MPa | Tensile strength, Rating [6]: Moderate | Particle size D[4, 3] [7]: 60.2 μm | Particle size D[v, 0.1] [7]: 10.5 µm | Particle size D[v, 0.9] [7]: 126 µm | True density (g/cm3), Value [8]: 1.29 g/cm3
Structure (SMILES): CC1CN(Cc2ncccn2)CC1c1nc2c(cnn2C2CCOCC2)c(=O)[nH]1 (stereo not shown) [A3]

Brittle fracture index, Rating [6]: Low | Brittle fracture index, Value [6]: 0.0486 | Brittle/viscoelastic bonding index (x105), Value [6]: 2.61 | Brittle/viscoelastic bonding index, Rating [6]: Poor | Compression stress (MPa), Value [6]: 58.8 MPa | Compression stress, Rating [6]: Moderate | Compromised Tensile strength (MPa), Value [6]: 0.274 MPa | Solid fraction, Value [6]: 0.87 | Tensile strength (MPa), Value [6]: 0.3 MPa | Tensile strength, Rating [6]: Low | Particle size D[4, 3] [7]: 144 μm | Particle size D[v, 0.1] [7]: 45.6 µm | Particle size D[v, 0.9] [7]: 247 µm | True density (g/cm3), Value [8]: 1.28 g/cm3
Structure (SMILES): CC1CN(Cc2ncccn2)CC1c1nc2c(cnn2C2CCOCC2)c(=O)[nH]1 (stereo not shown) [A2]
